Data published in article PMC9685055, “Biological activity of new bioactive steroids deriving from biotransformation of cortisone” (Microbial Cell Factories, 2022).

What was measured:
cyclooxygenase (COX) = biological target: T1, cyclooxygenase (COX) (Ovis aries, UniProt P05979); experiment: Cyclooxygenase inhibitory assay (fluorescence COX activity kit); assay type: biochemical; conditions: purified COX preparation, 50 µM, positive control
T1 construct: purchased Cayman 700200
T1 sequence (P05979 25-600): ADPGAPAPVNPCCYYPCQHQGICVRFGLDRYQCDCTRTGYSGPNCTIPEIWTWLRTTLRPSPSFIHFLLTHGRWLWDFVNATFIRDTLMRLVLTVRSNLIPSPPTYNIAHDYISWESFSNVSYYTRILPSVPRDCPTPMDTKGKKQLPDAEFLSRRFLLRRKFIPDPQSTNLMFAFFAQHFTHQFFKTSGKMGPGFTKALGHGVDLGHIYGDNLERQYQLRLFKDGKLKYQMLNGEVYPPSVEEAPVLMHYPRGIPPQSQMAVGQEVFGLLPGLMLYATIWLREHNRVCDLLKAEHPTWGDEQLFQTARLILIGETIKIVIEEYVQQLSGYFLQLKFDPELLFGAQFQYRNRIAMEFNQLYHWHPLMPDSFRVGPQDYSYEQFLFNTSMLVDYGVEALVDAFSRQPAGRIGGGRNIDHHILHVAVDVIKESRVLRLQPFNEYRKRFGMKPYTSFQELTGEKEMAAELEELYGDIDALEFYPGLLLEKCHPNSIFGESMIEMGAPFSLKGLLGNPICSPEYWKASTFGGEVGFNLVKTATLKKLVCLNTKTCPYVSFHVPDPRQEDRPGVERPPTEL
Method: Cyclooxygenase (COX) activity assay was determined by using a fluorescence COX activity assay kit (Cayman, No. 700200) for detecting COX-1 and COX-2 activity in purified enzyme and tissue homogenate preparations. The assay was conducted by monitoring the appearance of fluorescent compound resofurin in accordance to the supplier recommendation. Aspirin (acetylsalicylic acid; 50 µM) served as positive control. The test compounds were dissolved in 1–2% DMSO (v/v) at 4 different concentrations (0.1, 1, 10 and 100 µM) and added to a purified COX preparation. A 1–2% DMSO solution was added to control plates. The plates were shaken for a few seconds and incubated for 5 min at 25 °C. The fluorescence was measured by using an excitation wavelength of 540 nm and an emission wavelength of 590 nm. Average fluorescent values were calculated for all the samples (n = 3/group) in order to determine the percentage of inhibition in respect to control (i.e. untreated) plates.

[1] = test system: p65 NF-κB nuclear translocation in HaCaT cells; experiment: TNFα-induced p65 NF-κB nuclear translocation, immunofluorescence; assay type: cell-based; conditions: positive control (betamethasone-17-valerate 10 µg/mL), then 10 ng/mL TNFα 1 h
Method: HaCaT cells were cultured with Dulbecco’s modified Eagle’s medium High Glucose (Lonza, Milan, Italy) supplemented with 10% FBS, 100 U/mL penicillin, 100 μg/mL streptomycin and 2 mM L-glutamine as previously described. Cells were maintained in a humidified incubator at 37 °C with 5% CO2 and incubated until the monolayer was 80% confluent. Medium was changed every 2 days.
HaCaT cells were pretreated with or without 10 μM of both SCA and SCB for 24 h. Stock solutions of the two compounds were prepared in DMSO immediately before use and diluted to the final concentration in the culture medium. In some sets of experiments, betamethasone-17-valerate (10 µg/mL) served as a positive control; dimethyl sulfoxide (DMSO) served as a solvent control. After the pretreatments, cells were stimulated with 10 ng/mL TNFα for 1 h to induce the NFκB signaling pathway. Then, media were replaced with fresh culture medium. Cells and supernatants were collected at different time points for each set of experiments as described below.
Briefly, HaCaT cells were seeded on coverslips at a density of 1 × 10^5 cell/mL and incubated with DMEM high glucose supplemented with FBS 10%. Then, HaCaT cells were treated as indicated above. At the end of the proinflammatory stimulus with TNFα, cells were fixed in 4% paraformaldehyde in PBS for 30 min at 4 °C as previously described. HaCaT cells were permeabilized for 5 min at RT with PBS containing 0.2% Triton X-100. After the blocking with 1% BSA in PBS at RT for 1 h, HaCaT cells were incubated with p65 NF-κB primary antibody (1:100, sc-372; Santa Cruz Biotechnology, Inc., Dallas, Texas, USA) in PBS containing 0.5% BSA at 4 °C overnight. After washing, coverslips were incubated with appropriate secondary antibody for 1 h at RT. Nuclei were stained with 1 μg/mL DAPI (Sigma- Aldrich, Italy) for 1 min. […] Fluorescence was examined using an Epifluorescence microscope (Nikon Eclipse E800; Nikon Corporation, Surrey, UK) equipped with a plan apochromat 100 × 0.5 − 1.3 oil immersion objective and a mercury lamp source.

[2] = Photochemiluminescence (PCL-ACL) antioxidant assay; conditions: 0.1 mg/mL; Trolox equivalents per g of sample
Method: Photochemiluminescence assay, based on the methodology of Popov and Lewin [35], was performed to measure the antioxidant activity of cortisone, SCA and SCB compounds against superoxide anion radicals generated from luminol, a photosensitizer, when exposed to UV light at λmax = 351 nm. The antioxidant activity of compounds was measured using ACL kits (Analytic Jena, Jena, Germany) with a Photochem apparatus (Analytic Jena, Jena, Germany). In the PCL-ACL assay, the photochemical generation of free radicals is combined with the sensitive detection using chemiluminescence. In ACL studies, the kinetic light emission curve was monitored for 3 min and expressed as mM Trolox equivalents. The areas under the curves were calculated using the PCL soft control and analysis software. […] The observed inhibition of the signal was plotted against the concentration of Trolox added to the assay medium. The concentration of the added sample was such that the generated luminescence during the 3 min sampling interval fell within the limits of the standard curve. For ACL assay, 2.3 mL of reagent 1 (solvent and dilution reagent, methanol), 0.2 mL of reagent 2 (buffer solution), 25 μL of reagent 3 (photosensitizer: luminol 1 mmol L^−1), and 10 μL of standard or sample solution were mixed and measured. Luminol is used as a photosensitizer and as a detecting substance for free radicals. Trolox were used for the standard calibration curve from […].

## CC(=O)Oc1ccccc1C(=O)O [aspirin, acetylsalicylic acid, reference compound]
Cyclooxygenase (COX)
  effect on COX activity: strongly inhibited

## C[C@H]1C[C@H]2[C@@H]3CCC4=CC(=O)C=C[C@]4(C)[C@@]3(F)[C@@H](O)C[C@]2(C)[C@@]1(O)C(=O)CO [betamethasone, reference compound]
[1]
  effect on TNFα-mediated p65 activation: only partly prevented

## C[C@]12CCC(=O)C=C1CC[C@@H]1[C@@H]2C(=O)C[C@@]2(C)[C@H]1CC[C@]2(O)C(=O)CO [cortisone]
[2]
  antioxidant capacity, PCL-ACL assay: 0.13 µmol/g
